Measurements as given in patent US20140349923A1, “Compositions And Methods For Treating Diabetes And/Or Obesity” (GlaxoSmithKline Intellectual Property (No. 2) Limited, priority 2012, published 2014).

Assay: Chronic obesity efficacy study in DIO mice, chow ingredients with or without exendin-4 AlbudAb
Assay type: in vivo, DIO C57BL/6 mice
Method: Male diet induced obese (DIO) C57BL/6 mice (40-50 g body weight) and lean C57BL/6 mice (Taconic, Hudson, N.Y.) were used for the chronic obesity efficacy studies. The DIO mice were group housed and fed a high fat diet (60% fat by kcal) by the vendor from the time of weaning. Upon receipt at the GlaxoSmithKline Research Triangle Park facility, all mice were single-housed and maintained at constant temperature (approximately 22° C.) with 12 hr light/dark cycle (lights on from 5:00 AM to 5:00 PM). The mice were given ad libitum access to food (Research Diets D12451, 45 kcal % fat for DIO; Lab Diet 5001, 13.5 kcal % fat for lean) and water. All animal protocols were approved by the institutional animal care and use committee at GlaxoSmithKline in Research Triangle Park, N.C. The BCE, OFS, pectin, oleic acid, Nutella containing chows were prepared by mixing in a Hobart mixer with a whisk attachment and stored at 4° C. until used. Chows were fed to mice in glass jars with wire mesh column inserts (Unifab Corp., Kalamazoo, Mich.). […] All combination then were evaluated with and without co-treatment with exendin-4-albudAb. […] Body weights (BW) were measured on day −7 and then every 3 to 4 days for the duration of the study. On day 24, body composition was measured using quantitative magnetic resonance (QMR). […]

**Q.** For CCCCCCCC/C=C\CCCCCCCC(=O)O [oleic acid], which “weight loss (% change in body weight)” value (26 days) is on record?
**A.** −4.3%

**Q.** What about the “effect on weight compared to vehicle” value (Student's t-test) of the same compound?
**A.** statistically significant weight loss
